Consider 18 compounds from patent US5650406A, “Adamantane derivative, process for producing the same, and use thereof” (Asahi Kasei Kogyo Kabushiki Kaisha, priority 1994, dated 1997).

Read-outs that look alike come from different tables or passages of the source.

The target in assay [1] is σ-receptor. The assay is described as follows: σ-receptor binding, [^3 H] DTG displacement on rat brain membranes (Table 1). Particulars: for Ki: hydrochloride, [^3 H] DTG 3 nM, 25° C., 60 minutes, rat brain membrane, read-out: Sigma [^3 H] DTG Ki. Also noted: species or system Sprague-Dowley rats.
Assay [2] relates to σ-receptor. As to conditions: cited from earlier work.
Assay [3] concerns apomorphine induced climbing. The assay is described as follows: Suppressive action on apomorphine induced climbing (Table 2). The assay is classed as in vivo, ICR mice, male. As to conditions: hydrochloride; 30 mg/kg, p.o.; 1 hour before apomorphine 2 mg/kg s.c.; climbing observed 3 minutes after 20-23 minutes. The method, then:
Administering dopamine agohist, apomorphine in mouse resulted various abnormal behaviors, and especially, a climbing the cage has been known to be correlated with human schizophrenia. Therefore, a drug showing suppressire activity for apomorphine induced climbing in mice can be presumed to be effective as antischizophrenia activity on humans.
The compounds of the present invention were administered orally in ICR mice, male (Charles River Corp.), and after 1 hour, apomorphine 2 mg/kg was administered subcutaneously. Climbing behaviors of 3 minutes after 20-23 minutes of apomorphine administration were observed. Climbing behavior was observed by entering the mice in stainless steel made wire netting cage and measuring time remaining above the upper part of half part of the cage at observing. A climbing time of apomorphine single administered group is set as 100% and shortened time by administering the drug is shown in suppression rate.

By Ki is commonly meant the dissociation constant of the complex between target and ligand, obtained from inhibition or displacement.

`OC12CC3CC(C1)C(CCN1CC4CCC(CC4)C1)C(C3)C2` (single isomer, unassigned) [Example 2, 3-[2-(5-hydroxy-2-adamantyl)ethyl]-3-azabicyclo[3.2.2] nonane]: the inhibition constant (Ki) at σ-receptor [1] was 0.5 nM.

For `ClC12CC3CC(C1)C(CCN1CC4CCC(CC4)C1)C(C3)C2` (single isomer, unassigned) [Example 3, 3-[2-(5-chloro-2-adamantyl)ethyl]-3-azabicyclo[3.2.2] nonane], the inhibition constant Ki at σ-receptor [1] is 0.27 nM. `COC12CC3CC(C1)C(CCN1CC4CCC(CC4)C1)C(C3)C2` (single isomer, unassigned) [Example 4, 3-[2-(5-methoxy-2-adamantyl)ethyl]-3-azabicyclo[3.2.2] nonane]: on σ-receptor [1], the Ki was 1.03 nM.

Take `OC(CCCN1CCN(c2ncc(F)cn2)CC1)c1ccc(F)cc1` (stereo not drawn) [BMY-14802]: the “affinity to σ-receptor (background, in words)” value (shortened to “affinity to σ-receptor”) in the assay on σ-receptor [2] (prior art) is given as “show affinity to σ-receptor”. On to `C1CC2CCC1CN(CCC1C3CC4CC(C3)CC1C4)C2` (stereo not drawn) [Example 1, 3-[2-(2-adamantyl)ethyl]-3-azabicyclo[3.2.2] nonane], for which the Ki at σ-receptor [1] is 0.34 nM. The same compound displayed a Suppressive rate in assay [3] of 62%. As for `C1CC2CCC1CN(CCC13CC4CC(CC(C4)C1)C3)C2` [Example 5, 3-[2-(1-adamantyl)ethyl]-3-azabicyclo[3.2.2] nonane], the Ki at σ-receptor [1] worked out at 0.19 nM. For `CC12CC3CC(C1)CC(CCN1CC4CCC(CC4)C1)(C3)C2` [Example 6, 3-[2-(3-methyl-l-adamantyl)ethyl]-3-azabicyclo[3.2.2] nonane], the Ki on σ-receptor [1] amounted to 0.45 nM. Turning to `C1C2CC3CC1CC(C2)C3CCN1CC2CC3CC(C2)CC1C3` (stereo not drawn) [Example 7, 4-[2-(2-adamantyl)ethyl]-4-azatricyclo[4.3.1.1^3.8] undecane], the Ki on σ-receptor [1] came out at 0.26 nM. Also, the Suppressive rate in assay [3] came to 60%. Turning to `OC12CC3CC(C1)C(CCN1CC4CC5CC(C4)CC1C5)C(C3)C2` (stereo not drawn) [Example 8, 4-[2-(5-hydroxy-2-adanaantyl)ethyl]-4-azatricyclo[4.3.1.1^3.8] undecane], the inhibition constant (Ki) on σ-receptor [1] turned out to be 1.23 nM. Also, the Suppressive rate in assay [3] was 78%. As for `ClC12CC3CC(C1)C(CCN1CC4CC5CC(C4)CC1C5)C(C3)C2` (stereo not drawn) [Example 9, 4-[2-(5-chloro-2-adamantyl)ethyl]-4-azatricyclo[4.3.1.1^3.8] undecane], the Ki on σ-receptor [1] was determined as 0.55 nM. On to `COC12CC3CC(C1)C(CCN1CC4CC5CC(C4)CC1C5)C(C3)C2` (stereo not drawn) [Example 10, 4-[2-(5-methoxy-2-adamantyl)ethyl]-4-azatricyclo[4.3.1.1^3.8] undecane], for which the Ki at σ-receptor [1] came out at 0.63 nM. Regarding `C1C2CC3CC1CC(C2)N(CCC12CC4CC(CC(C4)C1)C2)C3` [Example 11, 4-[2-(1-adamantyl)ethyl]-4-azatricyclo[4.3.1.1^3.8] undecane], the Ki on σ-receptor [1] turned out to be 0.2 nM. The same measure, in the same setting: the result for `CC12CC3CC(C1)CC(CCN1CC4CC5CC(C4)CC1C5)(C3)C2` [Example 12] reads 0.29 nM.

With `O=C(CCCN1CCC(O)(c2ccc(Cl)cc2)CC1)c1ccc(F)cc1` [haloperidol], in the assay on σ-receptor [2], the “affinity to σ-receptor” value was “bind strongly with σ-receptor”.

Take `C[C@@H]1CN(CCCn2c3ccccc3c3ccccc32)C[C@H](C)N1` [limcazol]: the “affinity to σ-receptor” value in the assay with σ-receptor [2] (prior art) is on record as “show affinity to σ-receptor”. Consider `c1ccc(C2(N3CCCCC3)CCCCC2)cc1` [phencyclidine], for which the “affinity to σ-receptor” value with σ-receptor [2] (prior art) is listed as “has affinities for σ-receptor”. With `Cc1ccccc1NC(=N)Nc1ccccc1C` [radioactive ligand, [^3 H] 1,3-di(2-tolyl) guanidine, reference compound], the Kd on σ-receptor [1] (radioactive ligand for σ-receptor, used in Ki calculation, read-out: Kd (concentration of affinity of radioactive ligand for receptor)) is 10.6 nM. On to haloxon, for which, in the assay with σ-receptor [2] (prior art), the “affinity to σ-receptor” value is on record as “no affinity to σ-receptor”.
